# Data as given in patent EP0239801B1, “Plant cells resistant to herbicidal glutamine synthetase inhibitors” (THE GENERAL HOSPITAL CORPORATION, priority 1986, dated 1987).
# Like-named read-outs stand apart in the source and are kept apart here.
# Assays:
# dicotyledonous weeds = details: field trials in West Germany, Spain, South Africa, U.S.A. and Japan; Schwerdtle 1981; cited from earlier work
# monocotyledonous weeds = details: field trials; Schwerdtle 1981; cited from earlier work
# [1] = biological target: glutamine synthetase from E. coli (Escherichia coli, UniProt P0A9C5); details: competitive inhibitor; cited from earlier work
# [2] = biological target: pea leaf glutamine synthetase; details: cited from earlier work
# GS = GS activity of cell extracts in the presence of various amounts of phosphinothricin; format: biochemical, alfalfa; details: both cell types
# Description: When the protein patterns of crude cell extracts of the susceptible and resistant cell lines were compared by SDS-polyacrylamide gel electrophoresis, the overproduction of a polypeptide in the molecular weight range 40-42 KD could be observed in the PPT-resistant cell line. Purified GS of alfalfa has the same molecular weight. The enzyme activity of the cell extracts was determined in parallel. The specific GS-activity in the resistant cells was 5-10 fold higher than in wild-type cells. The specific activity of GS in the PPT-resistant cell lines is in the same order of magnitude as in root nodule tissue of alfalfa, which, as all nodule tissues of efficiently dinitrogen fixing legumes, has high GS-activity.
# [3] = system: variant PPT resistant alfalfa cell line; test: Growth of suspension cultures (packed cell volume), selected resistant cells; format: cell-based
# Description: The amide nitrogen of glutamine provides the source of nitrogen for many biosynthetic reactions, indicating a central role for GS in nitrogen metabolism.
# Selection is carried out in an appropriate culture medium by cultivating plant cells in the presence of stepwise increases of the herbicidal GS-inhibitor in the medium. After a given period of time has elapsed, such as, for example, a few weeks to several months, it is possible to select a cell population which is several-fold more resistant to the herbicidal GS-inhibitor than the original plant cells. For example, when the cells are alfalfa and the inhibitor is PPT, it has been possible to obtain a PPT-resistant alfalfa cell line after one year of stepwise PPT increases, which line was 20-fold more resistant to PPT than the original line. […] This was never possible by plating wild-type cells.
# An alfalfa cell line which is able to grow in the presence of 3 mM L-phosphinothricin in the culture medium was selected. Alfalfa was chosen since it is one of the model plants in which the regeneration of a whole plant from single isolated cells or protoplasts can be readily achieved.
# The selection of the phosphinothricin resistant alfalfa line was done by stepwise increase of the inhibitor concentration in the liquid culture medium. […]
# Sequence of glutamine synthetase from E. coli (P0A9C5 2-469): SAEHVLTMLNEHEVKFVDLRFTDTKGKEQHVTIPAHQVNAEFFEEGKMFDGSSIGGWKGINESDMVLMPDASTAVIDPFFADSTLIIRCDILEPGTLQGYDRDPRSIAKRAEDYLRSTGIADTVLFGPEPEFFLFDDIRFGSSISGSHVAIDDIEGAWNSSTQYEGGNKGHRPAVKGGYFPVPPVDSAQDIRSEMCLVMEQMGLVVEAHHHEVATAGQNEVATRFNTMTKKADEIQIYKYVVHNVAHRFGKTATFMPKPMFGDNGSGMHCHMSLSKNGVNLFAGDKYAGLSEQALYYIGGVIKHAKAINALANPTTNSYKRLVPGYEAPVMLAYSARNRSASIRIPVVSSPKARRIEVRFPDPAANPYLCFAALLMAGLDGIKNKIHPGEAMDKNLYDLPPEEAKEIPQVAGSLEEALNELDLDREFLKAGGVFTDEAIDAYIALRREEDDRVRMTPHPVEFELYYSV
smiles,measurement,setting,value
"CP(=O)(O)CC[C@H](N)C(=O)O [PPT, phosphinothricin]",weed control,dicotyledonous weeds,well controlled
same,weed control,monocotyledonous weeds,somewhat higher quantities were needed for good control
same,Ki,[1],5.9 µM
same,Ki,"[2]; mixed competitive inhibitor, Leason et al. 1982, read-out: apparent Ki value",73 µM
same,enzyme inhibition in wild-type versus resistant cell extracts,GS,same degree of enzyme inhibition
"CS(=N)(=O)CCC(N)C(=O)O (stereo not shown) [MSO, methionine sulfoximime]",Ki,[2]; read-out: Ki value,160 µM
CP(=O)(O)CC[C@H](N)C(=O)O [L-phosphinothricin],concentration in the culture medium in the presence of which the selected cell line is able to grow,[3],3 mM
